One data set has as its system plasma proteins. In words: Plasma protein binding (Transil XL PPB Binding Kit). In kind it is in vitro ADME. The text has this: To carry out this study, the commercial Transil XL PPB Binding Kit, v2, Sovicell was used, following the manufacturer's recommendations.
For data set [1], the target named is recombinant 11β-HSD1 enzyme (Homo sapiens (Human), UniProt P28845). In words: 11β-HSD1 reductase activity (HTRF Cortisol Kit). It is filed as biochemical. The note with it: 266 nM cortisone, 333 μM NADPH, read-out: 11b-HSD1 reductase (HTRF) IC50. How it is done: Determination of 11β-HSD1 Reductase Activity
Chain of recombinant 11β-HSD1 enzyme (P28845 whole entry): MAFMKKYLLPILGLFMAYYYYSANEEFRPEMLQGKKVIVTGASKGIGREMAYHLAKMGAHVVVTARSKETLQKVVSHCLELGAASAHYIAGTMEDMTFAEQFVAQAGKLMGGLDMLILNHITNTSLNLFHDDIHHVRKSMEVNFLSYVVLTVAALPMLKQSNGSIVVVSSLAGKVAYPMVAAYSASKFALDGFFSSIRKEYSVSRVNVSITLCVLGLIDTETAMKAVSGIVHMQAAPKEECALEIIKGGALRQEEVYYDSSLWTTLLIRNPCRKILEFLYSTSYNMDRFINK
First, stock solutions of the compounds were prepared in DMSO at a concentration of […], of which serial dilutions were made in order to determine the efficacy curve.
As for the recombinant 11β-HSD1 enzyme (Cayman Chemical, MI, USA; Item No. 10007815), it was prepared in Tris Buffer 20 mM EDTA 5 mM pH 6.0 (Tris buffer) at different dilutions.
Initially, the enzyme concentration to be used in the assays in order to evaluate the biological activity of the compounds was determined. The Cortisol Kit product (Cisbio, MA, USA; Cat no. 62CRTPEG) was used for that purpose.
The protocol consisted of preparing the reaction buffer, adding 266 nM cortisone and 333 μM NADPH in Tris buffer. Then, this reaction buffer is added to the wells of the HTRF (Homogeneous Time Resolved Fluorescence) reaction plate together with the enzyme in a 4:1 ratio respectively, and incubated for 2 hours at 37° C. In the case of the control wells, two wells with Tris buffer were added, without compounds.
After the incubation time, the reagents of the Cortisol kit were added, Cortisol d2 and Cortisol cryptate in sample ratio, Cortisol d2 and cortisol cryptate 2:1:1, in a quantity according to the size of the well as indicated by the supplier (for the negative control of the kit, the cortisol d2 is replaced by the kit's reconstitution buffer). This reaction is incubated for 1 hour at room temperature in order to later read the fluorescence at 665 and 620 nm.
Once the enzyme concentration to be used has been determined, the cortisol kit protocol is continued to determine the efficacy curve for the compounds. As previously done, a plate for HTRF was prepared adding to each well of the reaction buffer, the recombinant 11β-HSD1 enzyme and the compounds to be assayed in a 3:1:1 ratio, respectively. The plate was subsequently incubated at 37° C. for 2 hours.
After the incubation time, the reagents of the cortisol kit, cortisol d2 and cortisol cryptate, are added, and were incubated again for 1 hour at room temperature. Finally, the fluorescence of each well was determined at 665 and 620 nm.
(In TR-FRET formats the signal depends on donor and acceptor labels being close together.)

Data set [2] can be described thus: In vivo pharmacokinetics in mice, IV and oral. Details: species or system male C57BL/6J mice. As for the experimental part: The animals were classified according to weight and divided into the following groups (Table 7):
20% Kolliphor and 50% PBS at a concentration of 1 mg/mL. From this solution, a 0.4 mg/mL dilution was made for IV administration.
In intravenous (IV) administration, after each compound was administered to the mice, the mice were separated into groups of 3 and were euthanized at times 5, 10, 15, 30, 60, 120, 240, 260, 480 and 1440 minutes. For oral administration (V.O), the mice were separated into groups of 3 and were euthanized at times 15, 30, 60, 120, 240, 260, 480 and 1440 minutes. To obtain zero-time assays, mice were used to which no compound was administered.
Whole blood was obtained from each animal (in microtubes with EDTA); these samples were centrifuged at 9000 g at a temperature of 4° C. for a period of 5 minutes, obtaining the plasma which was stored at −80° C.
In addition, organs such as brain, liver, muscle, epididymal fat, heart and kidney were obtained from the animals, which were frozen in liquid nitrogen and stored at −80° C.
Plasma samples and brain, liver, epididymal fat, and muscle (tissue) samples were analyzed. 2× in volume of water (weight/volume) was added to the tissue samples while 4× in volume of water (weight/volume) was added to the muscle mixture, after which they were homogenized using a Bullet Blender equipment (Next Advance, USA).
All samples were analyzed as a single point by LC-MS/MS in accordance with the analytical methodology already standardized and presented in application example 3.
To begin, a calibration curve was run. For this purpose, the controls, the plasma and organ samples were prepared by adding 180 μL of cold acetonitrile to these, then vortexed for 15 seconds and centrifuged at 6100 g for 30 seconds at 4° C. The supernatant which was obtained from this procedure was diluted in 2 volumes of 0.2% formic acid in water and transferred to a vial that will allow it to be injected into LC-MS/MS.
The conditions for the LC-MS/MS analysis were: • HPLC: Eksigent UltraLC 100 • Autosampler: Eksigent UltraLC 100-XL at RT • Mobile phase: A-0.1% formic acid in water; B-0.1% formic acid in acetonitrile. • Column: YMC Triart 1.9 μm; 2.0×50 mm • Injection volume: 2 μL • Gradient: 5% B for 0.25 min→5-95% B for 0.75 min→95% B for 2 min→95-5% B for 0.25 min→5% B for 0.25 min • Flow: 0.6 mL/min • Mass Spectrometer: Applied Biosystems/SCIEX QTRAP 4500 • Interface: TurbolonSpray (ESI) at 600° C. • Software: Analyst.

Consider `Cc1cccc(CCc2nc(C34CC5CC(CC(C5)C3)C4)no2)c1` [BD-40, 1-(3-methylphenyl)-2-(3-adamantyl-1,2,4-oxadiazol-5-yl)ethane], for which the plasma protein binding in the data set on plasma proteins is 98.3±1.9%. Also, in data set [1], the concentration for half-maximal inhibition (IC50) (as a rule, the concentration that inhibits the measured activity by half) stood at 0.0118 µM. In data set [2] (IV, 2 mg/Kg, plasma), this compound displayed an AUCExtr of 5.240%, an AUCInf of 0.623 µg·h/mL, an AUCfinal of 0.649 µg·h/mL and a C0/Cmax of 2.2 µg/mL. Further, in data set [2] (IV, 2 mg/Kg, plasma), the CL was 3.21 L/h/kg, the MRTInf was found to be 87.6 min, the Vz turned out to be 15.30 L/kg and the t1/2 was 198 min. In data set [2] (PO, dose 3 mg/Kg, plasma), the AUCExtr came out at 3.6%, the AUCInf turned out to be 0.596 µg·h/mL, the AUCfinal turned out to be 0.575 µg·h/mL and the C0/Cmax was 0.393 µg/mL. In data set [2] (PO, dose 3 mg/Kg, plasma), the CL stood at 16.8 L/h/kg, the F is recorded as 19.1%, the Vz is on record as 168 L/kg and the t1/2 came out at 32.3 min. Besides, in data set [2] (PO, dose 3 mg/Kg, plasma), the tmax was 30 min. In data set [2] (administered intravenously, plasma), the “mean time (of elimination) of the drug” value worked out at 3.30 h. Also, in data set [2] (administered orally, plasma), the “mean time (of elimination) of the drug” value is 0.864 h. In data set [2] (oral and intravenous administration), the “detection in tissues (brain, liver, fat, muscle)” value is “can be detected in the different tissues”. Moreover, in data set [2] (plasma), the “bioavailability / apparent availability” value is “good bioavailability”.
